In ChEMBL document CHEMBL3877265, “Design, synthesis and docking studies of novel 1,2-dihydro-4-hydroxy-2-oxoquinoline-3-carboxamide derivatives as a potential anti-proliferative agents” (2017):

Assays:
Format in all cases: functional
[1] = Antiproliferative activity against human PANC1 cells after 48 hrs by SRB assay; settings: PANC-1, 48 h
[2] = Antiproliferative activity against human HeLa cells after 48 hrs by SRB assay
[3] = Antiproliferative activity against human MDA-MB-231 cells after 48 hrs by SRB assay; settings: MDA-MB-231, 48 h

Cn1c(=O)c(C(=O)NCCC(=O)N2CCN(c3ccccc3)CC2)c(O)c2ccccc21
GI50 ([1]; read-out: GI50): 1570 nM | GI50 ([1]; read-out: pGI50 (converted)): 1570 nM | GI50 ([2]; read-out: GI50): 3900 nM | GI50 ([2]; read-out: pGI50 (converted)): 3900 nM | GI50 ([3]; read-out: GI50): 1620 nM | GI50 ([3]; read-out: pGI50 (converted)): 1620 nM

COc1cccc(N2CCN(C(=O)CCNC(=O)c3c(O)c4ccccc4n(C)c3=O)CC2)c1
GI50 ([1]; read-out: GI50): 510 nM | GI50 ([1]; read-out: pGI50 (converted)): 510 nM | GI50 ([2]; read-out: GI50): 730 nM | GI50 ([2]; read-out: pGI50 (converted)): 730 nM | GI50 ([3]; read-out: GI50): 1300 nM | GI50 ([3]; read-out: pGI50 (converted)): 1300 nM

Cn1c(=O)c(C(=O)NCCC(=O)N2CCCCC2)c(O)c2ccccc21
GI50 ([1]; read-out: GI50): 150 nM | GI50 ([1]; read-out: pGI50 (converted)): 150 nM | GI50 ([2]; read-out: GI50): 820 nM | GI50 ([2]; read-out: pGI50 (converted)): 820 nM | GI50 ([3]; read-out: GI50): 1400 nM | GI50 ([3]; read-out: pGI50 (converted)): 1400 nM

CN1CCN(C(=O)CCNC(=O)c2c(O)c3ccccc3n(C)c2=O)CC1
GI50 ([1]; read-out: GI50): 1660 nM | GI50 ([1]; read-out: pGI50 (converted)): 1660 nM | GI50 ([2]; read-out: GI50): 1160 nM | GI50 ([2]; read-out: pGI50 (converted)): 1160 nM | GI50 ([3]; read-out: GI50): 590 nM | GI50 ([3]; read-out: pGI50 (converted)): 590 nM

Cn1c(=O)c(C(=O)NCCC(=O)N2CCN(c3ccccc3F)CC2)c(O)c2ccccc21
GI50 ([1]; read-out: GI50): 2500 nM | GI50 ([1]; read-out: pGI50 (converted)): 2500 nM | GI50 ([2]; read-out: GI50): 960 nM | GI50 ([2]; read-out: pGI50 (converted)): 960 nM | GI50 ([3]; read-out: GI50): 1700 nM | GI50 ([3]; read-out: pGI50 (converted)): 1700 nM

Cn1c(=O)c(C(=O)NCCC(=O)N2CCN(c3ccc(C(F)(F)F)cc3)CC2)c(O)c2ccccc21
GI50 ([1]; read-out: GI50): 2550 nM | GI50 ([1]; read-out: pGI50 (converted)): 2550 nM | GI50 ([2]; read-out: GI50): 3700 nM | GI50 ([2]; read-out: pGI50 (converted)): 3700 nM | GI50 ([3]; read-out: GI50): 5400 nM | GI50 ([3]; read-out: pGI50 (converted)): 5400 nM

CCN1CCN(C(=O)CCNC(=O)c2c(O)c3ccccc3n(C)c2=O)CC1
GI50 ([1]; read-out: GI50): 480 nM | GI50 ([1]; read-out: pGI50 (converted)): 480 nM | GI50 ([2]; read-out: GI50): 880 nM | GI50 ([2]; read-out: pGI50 (converted)): 880 nM | GI50 ([3]; read-out: GI50): 1320 nM | GI50 ([3]; read-out: pGI50 (converted)): 1320 nM

Cn1c(=O)c(C(=O)NCCC(=O)N2CCN(Cc3ccccc3)CC2)c(O)c2ccccc21
GI50 ([1]; read-out: GI50): 950 nM | GI50 ([1]; read-out: pGI50 (converted)): 950 nM | GI50 ([2]; read-out: GI50): 760 nM | GI50 ([2]; read-out: pGI50 (converted)): 760 nM | GI50 ([3]; read-out: GI50): 510 nM | GI50 ([3]; read-out: pGI50 (converted)): 510 nM

Cn1c(=O)c(C(=O)NCCC(=O)N2CCSCC2)c(O)c2ccccc21
GI50 ([1]; read-out: GI50): 1910 nM | GI50 ([1]; read-out: pGI50 (converted)): 1910 nM | GI50 ([2]; read-out: GI50): 3000 nM | GI50 ([2]; read-out: pGI50 (converted)): 3000 nM | GI50 ([3]; read-out: GI50): 2250 nM | GI50 ([3]; read-out: pGI50 (converted)): 2250 nM

Cn1c(=O)c(C(=O)NCCC(=O)N2CCC(Cc3ccccc3)CC2)c(O)c2ccccc21
GI50 ([1]; read-out: GI50): 680 nM | GI50 ([1]; read-out: pGI50 (converted)): 680 nM | GI50 ([2]; read-out: GI50): 1400 nM | GI50 ([2]; read-out: pGI50 (converted)): 1400 nM | GI50 ([3]; read-out: GI50): 710 nM | GI50 ([3]; read-out: pGI50 (converted)): 710 nM

Cn1c(=O)c(C(=O)NCCC(=O)N2CCN(c3ccc([N+](=O)[O-])cc3)CC2)c(O)c2ccccc21
GI50 ([1]; read-out: GI50): 420 nM | GI50 ([1]; read-out: pGI50 (converted)): 420 nM | GI50 ([2]; read-out: GI50): 940 nM | GI50 ([2]; read-out: pGI50 (converted)): 940 nM | GI50 ([3]; read-out: GI50): 300 nM | GI50 ([3]; read-out: pGI50 (converted)): 300 nM

COc1ccccc1N1CCN(C(=O)CCNC(=O)c2c(O)c3ccccc3n(C)c2=O)CC1
GI50 ([1]; read-out: GI50): 700 nM | GI50 ([1]; read-out: pGI50 (converted)): 700 nM | GI50 ([2]; read-out: GI50): 740 nM | GI50 ([2]; read-out: pGI50 (converted)): 740 nM | GI50 ([3]; read-out: GI50): 1200 nM | GI50 ([3]; read-out: pGI50 (converted)): 1200 nM

COc1ccc(C[C@@H](O)c2cc(OC)c(OC)c(OC)c2)cc1O [COMBRETASTATIN]
GI50 ([1]; read-out: GI50): 59 nM | GI50 ([1]; read-out: pGI50 (converted)): 59 nM | GI50 ([2]; read-out: GI50): 83 nM | GI50 ([2]; read-out: pGI50 (converted)): 83 nM | GI50 ([3]; read-out: GI50): 90 nM | GI50 ([3]; read-out: pGI50 (converted)): 90 nM

COC(=O)Nc1nc2cc(C(=O)c3cccs3)ccc2[nH]1 [NOCODAZOLE]
GI50 ([1]; read-out: GI50): < 10 nM | GI50 ([2]; read-out: GI50): < 10 nM | GI50 ([3]; read-out: GI50): < 10 nM
